Results reported in patent US20210188813A1, “EZH2 INHIBITOR AND PHARMACEUTICALLY ACCEPTABLE SALTS AND POLYMORPHIC SUBSTANCES THEREOF, AND APPLICATION OF EZH2 INHIBITOR” (SHANGHAI HAIYAN PHARMACEUTICAL TECHNOLOGY CO., LTD., priority 2018, published 2021).
In brackets after ≈: the same amount, converted by molar mass. Like-named read-outs stand apart in the source and are kept apart here.

Experiments:
[1] = Solid state stability experiment; format: physicochemical
From the text: Detected changes in crystal form and purity at 4 and 7 days.

[2] = Dynamic solubility experiment; format: physicochemical; settings: for Solubility / solubility at 24 h: room temperature, 24 h; for solubility at 24 h: thermodynamic from solid
From the text: The free base samples and the two crystal forms were plotted separately in the experiment.

Pfeiffer cells = experiment: Cell proliferation assay, Pfeiffer; format: cell-based; settings: for IC50: Homo sapiens, Pfeiffer, 144 h, 6 days' growth, cell counting kit-8
Method: (§1) Cell lines Pfeiffer (CRL-2632), suDHL-6 (CRL-2959) and suDHL-10 (CRL-2963) were obtained from ATCC. All cell lines were cultured in RPMI-1640 medium (Gibco) plus 10% FBS (Gibco). Cells are harvested by centrifuge and densities are determined using a CounterStar cell counter. Appropriate number of cells are plated in a96-well culture plate and pre-incubate overnight. Tested compounds are 1:3 diluted for 8-points and added into each well. After 6 days' growth, cell counting kit-8 (Dojindo) is used to detect cell viability and read on Tecan infinite pro. IC50s are counted by XLfit using a four-parameter model.

PRC2 (EZH2-Y641F) = biological target: T1, PRC2 (EZH2-Y641F) (Homo sapiens, UniProt Q15910, Y641F); experiment: In vitro methyltransferase assay; format: biochemical
T1 construct: purchased Active motif
Method: Recombinant PRC2 (EZH2-Y641F) was purchased from Active motif, S-adenosyl-methionin chloride (SAM) and Poly-L-lysine (PLL) were purchased from Sigma-Aldrich, H3(1-50)K27me1 peptide was purchased from Cisbio. LANCEUltra (Perkinelmer) system was used for detection. For the enzyme activity test, tested compounds are 1:3 diluted for 8-points, and added into each well, then 100 ng enzyme is added. And then the buffer [20 mM Tris pH8.5, 2 mM MgCl2, 0.01% Tween-20, 1 mM TCEP] containing […]/250 nM H3 (1-50)K27me1 premixtures are added. After 3 hours enzyme reaction at RT, the premixed detection buffer (PLL, Europium antibody and Ulight) is added, and react for 1 h at RT, then read fluorescence on Tecan infinite pro. IC50s are counted by XLfit using a four-parameter model.

SU-DHL-6 = experiment: Cell proliferation assay, SU-DHL-6; format: cell-based
Method: as §1

SU-DHL-10 = experiment: Cell proliferation assay, SU-DHL-10; format: cell-based
Method: as §1

[3] = 60° C. and 40° C./75% RH, 4 and 7 days

T1 sequence (Q15910 whole entry Y641F): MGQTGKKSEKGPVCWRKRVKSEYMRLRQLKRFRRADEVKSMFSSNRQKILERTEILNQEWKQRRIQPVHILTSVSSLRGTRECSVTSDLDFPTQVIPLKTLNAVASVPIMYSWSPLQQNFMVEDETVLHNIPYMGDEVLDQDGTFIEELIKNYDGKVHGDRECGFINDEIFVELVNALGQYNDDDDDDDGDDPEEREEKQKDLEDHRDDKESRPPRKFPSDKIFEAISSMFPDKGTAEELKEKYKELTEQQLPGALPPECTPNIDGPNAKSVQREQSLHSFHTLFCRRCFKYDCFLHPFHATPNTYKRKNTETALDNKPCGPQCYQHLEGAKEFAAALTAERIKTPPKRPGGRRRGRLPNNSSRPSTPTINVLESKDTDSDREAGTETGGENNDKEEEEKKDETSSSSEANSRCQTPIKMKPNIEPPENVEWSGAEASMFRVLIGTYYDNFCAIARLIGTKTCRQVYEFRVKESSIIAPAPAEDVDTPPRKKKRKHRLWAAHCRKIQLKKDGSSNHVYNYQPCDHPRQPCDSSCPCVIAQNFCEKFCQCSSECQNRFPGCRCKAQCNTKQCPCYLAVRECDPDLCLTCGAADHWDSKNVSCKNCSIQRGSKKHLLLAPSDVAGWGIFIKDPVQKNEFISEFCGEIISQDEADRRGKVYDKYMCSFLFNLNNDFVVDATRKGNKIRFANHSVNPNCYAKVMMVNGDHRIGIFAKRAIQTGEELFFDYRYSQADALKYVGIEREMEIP
T1 sequence (O75530 whole entry partner): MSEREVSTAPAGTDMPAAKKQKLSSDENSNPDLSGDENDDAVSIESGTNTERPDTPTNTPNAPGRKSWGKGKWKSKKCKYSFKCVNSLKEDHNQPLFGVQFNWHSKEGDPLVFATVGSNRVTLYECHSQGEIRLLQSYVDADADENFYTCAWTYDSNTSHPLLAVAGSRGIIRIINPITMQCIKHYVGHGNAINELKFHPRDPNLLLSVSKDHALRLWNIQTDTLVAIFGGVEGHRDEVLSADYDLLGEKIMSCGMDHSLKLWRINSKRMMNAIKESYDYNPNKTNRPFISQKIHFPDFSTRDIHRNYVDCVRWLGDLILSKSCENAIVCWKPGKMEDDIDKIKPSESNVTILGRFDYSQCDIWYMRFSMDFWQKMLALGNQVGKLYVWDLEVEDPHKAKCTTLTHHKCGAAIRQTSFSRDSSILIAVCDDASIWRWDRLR
T1 sequence (Q15022 whole entry partner): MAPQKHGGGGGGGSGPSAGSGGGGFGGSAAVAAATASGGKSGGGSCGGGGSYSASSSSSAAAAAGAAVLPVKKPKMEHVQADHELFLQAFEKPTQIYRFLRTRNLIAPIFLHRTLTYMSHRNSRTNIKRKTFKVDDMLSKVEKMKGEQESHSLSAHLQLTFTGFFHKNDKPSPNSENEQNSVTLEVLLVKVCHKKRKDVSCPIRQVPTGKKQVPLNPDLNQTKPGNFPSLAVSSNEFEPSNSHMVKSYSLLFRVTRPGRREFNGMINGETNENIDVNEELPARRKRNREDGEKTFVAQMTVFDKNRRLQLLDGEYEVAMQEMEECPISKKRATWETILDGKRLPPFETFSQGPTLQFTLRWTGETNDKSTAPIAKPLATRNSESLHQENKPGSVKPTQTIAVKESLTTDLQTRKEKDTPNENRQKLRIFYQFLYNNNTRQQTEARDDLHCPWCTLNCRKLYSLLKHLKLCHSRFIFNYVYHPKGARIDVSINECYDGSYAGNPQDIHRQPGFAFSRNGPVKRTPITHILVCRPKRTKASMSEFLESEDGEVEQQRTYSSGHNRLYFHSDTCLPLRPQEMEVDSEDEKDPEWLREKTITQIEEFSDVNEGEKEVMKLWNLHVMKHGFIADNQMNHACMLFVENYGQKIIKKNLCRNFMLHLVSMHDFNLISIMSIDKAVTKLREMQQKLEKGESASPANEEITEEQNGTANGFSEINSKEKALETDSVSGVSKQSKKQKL
T1 sequence (Q09028 whole entry partner): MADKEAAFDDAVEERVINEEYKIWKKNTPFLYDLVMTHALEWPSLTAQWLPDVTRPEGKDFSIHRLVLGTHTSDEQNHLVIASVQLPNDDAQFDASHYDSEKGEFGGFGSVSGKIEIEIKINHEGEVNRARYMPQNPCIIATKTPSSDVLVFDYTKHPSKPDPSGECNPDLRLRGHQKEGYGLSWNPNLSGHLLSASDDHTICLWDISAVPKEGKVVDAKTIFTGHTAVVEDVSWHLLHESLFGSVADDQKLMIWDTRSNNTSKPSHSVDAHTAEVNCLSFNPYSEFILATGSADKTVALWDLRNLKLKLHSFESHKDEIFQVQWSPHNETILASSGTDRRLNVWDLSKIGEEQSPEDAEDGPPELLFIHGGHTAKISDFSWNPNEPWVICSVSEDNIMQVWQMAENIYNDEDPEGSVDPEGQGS
T1 sequence (Q6ZN18 whole entry partner): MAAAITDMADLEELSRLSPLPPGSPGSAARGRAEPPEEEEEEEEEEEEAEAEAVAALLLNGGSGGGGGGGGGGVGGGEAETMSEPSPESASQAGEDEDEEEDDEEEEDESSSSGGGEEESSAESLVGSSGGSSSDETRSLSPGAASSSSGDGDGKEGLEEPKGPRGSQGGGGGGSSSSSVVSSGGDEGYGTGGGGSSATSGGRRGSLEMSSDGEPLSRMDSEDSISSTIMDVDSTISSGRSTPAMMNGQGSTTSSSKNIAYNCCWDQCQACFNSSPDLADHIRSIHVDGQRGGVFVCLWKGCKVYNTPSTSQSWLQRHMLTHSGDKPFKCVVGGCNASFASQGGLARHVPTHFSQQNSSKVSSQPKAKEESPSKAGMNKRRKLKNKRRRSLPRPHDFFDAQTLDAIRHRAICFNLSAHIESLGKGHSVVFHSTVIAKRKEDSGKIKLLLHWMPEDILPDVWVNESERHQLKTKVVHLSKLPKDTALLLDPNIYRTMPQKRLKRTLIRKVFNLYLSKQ

## CCc1c(C(=O)NCc2c(C)cc(C)[nH]c2=O)cc2c(cnn2C)c1N(CC)[C@H]1CC[C@H](N2CC(OC)C2)CC1.O=C(O)/C=C\C(=O)O [Crystal form B]
[1]; 4° C. 0 d
  Content (%): 96.94%
  Properties: Off-white
  RRT(%) 0.86: 0.19%
  RRT(%) 0.89: 0.09%
  RRT(%) 0.92: 0.05%
  RRT(%) 0.94: 0.17%
  RRT(%) 1.04: 0.51%
  RRT(%) 1.07: 0.43%
  RRT(%) 1.10: 0.38%
  RRT(%) 1.13: 0.21%
  RRT(%) 1.15: 0.40%
  RRT(%) 1.16: 0.64%
  Total impurities (%): 3.06%
[1]; 40° C./75% RH 4 d
  Content (%): 96.88%
  Properties: Off-white
  RRT(%) 0.86: 0.20%
  RRT(%) 0.89: 0.08%
  RRT(%) 0.92: 0.05%
  RRT(%) 0.94: 0.16%
  RRT(%) 1.04: 0.45%
  RRT(%) 1.07: 0.40%
  RRT(%) 1.10: 0.47%
  RRT(%) 1.13: 0.20%
  RRT(%) 1.15: 0.41%
  RRT(%) 1.16: 0.63%
  RRT(%) 1.20: 0.07%
  Total impurities (%): 3.12%
[1]; 40° C./75% RH 7 d
  Content (%): 96.95%
  Properties: Off-white
  RRT(%) 0.86: 0.25%
  RRT(%) 0.89: 0.07%
  RRT(%) 0.92: 0.05%
  RRT(%) 0.94: 0.16%
  RRT(%) 1.04: 0.45%
  RRT(%) 1.07: 0.41%
  RRT(%) 1.10: 0.44%
  RRT(%) 1.13: 0.20%
  RRT(%) 1.15: 0.41%
  RRT(%) 1.16: 0.63%
  Total impurities (%): 3.05%
[1]; 60° C. 4 d
  Content (%): 97.34%
  Properties: Off-white
  RRT(%) 0.86: 0.14%
  RRT(%) 0.89: 0.06%
  RRT(%) 0.94: 0.26%
  RRT(%) 1.04: 0.36%
  RRT(%) 1.07: 0.43%
  RRT(%) 1.10: 0.32%
  RRT(%) 1.13: 0.13%
  RRT(%) 1.15: 0.39%
  RRT(%) 1.16: 0.59%
  Total impurities (%): 2.66%
[1]; 60° C. 7 d
  Content (%): 97.30%
  Properties: Off-white
  RRT(%) 0.86: 0.16%
  RRT(%) 0.89: 0.05%
  RRT(%) 0.94: 0.29%
  RRT(%) 1.04: 0.35%
  RRT(%) 1.07: 0.44%
  RRT(%) 1.10: 0.29%
  RRT(%) 1.13: 0.13%
  RRT(%) 1.15: 0.40%
  RRT(%) 1.16: 0.60%
  Total impurities (%): 2.70%
[1]; [3]
  change in crystal form on storage: the crystal form has not changed
  solid state stability: good stability
[2]; 0.1M HCl
  Phenomenon: clear
  Solubility: ≥30.4 mg/mL
[2]; H2O
  Final pH: 5.06
  Phenomenon: turbid
  Solubility: 3.13 mg/mL
[2]; pH 4.5 buffer
  Final pH: 4.91
  Phenomenon: clear
  Solubility: ≥3.07 mg/mL
[2]; pH 6.8 buffer
  Final pH: 6.53
  Phenomenon: clear
  Solubility: ≥3.72 mg/mL

## CCN(c1cc(C(=O)NCc2c(C)cc(C)[nH]c2=O)c(C)c2c1cnn2C)C1CCN(CC(F)(F)F)CC1 [D4]
Pfeiffer cells
  IC50: > 3 µM
PRC2 (EZH2-Y641F)
  IC50: > 10 µM

## CCc1c(C(=O)NCc2c(C)cc(C)[nH]c2=O)cc2c(cnn2C)c1N(CC)[C@H]1CC[C@H](N2CC(OC)C2)CC1 [Free base, N-((4,6-dimethyl-2-oxo-1,2-dihydropyridin-3-yl)methyl)-5-ethyl-4-(ethyl((1S,4S)-4-(3-methoxyazetidin-1-yl)cyclohexyl)amino)-1-methyl-1H-indazole-6-carboxamide]
Pfeiffer cells
  IC50: 0.007 µM
Pfeiffer cells; Table 10
  inhibitory activity against cells: high inhibitory activity
[2]; 0.1M HCl
  Final pH: 4.56
  Phenomenon: clear
[2]; H2O
  Final pH: 8.32
  Phenomenon: turbid
[2]; aqueous buffer, pH 4.5 buffer
  solubility at 24 h: 3.59 mg/mL (≈ 6540 µM)
[2]; aqueous buffer, pH 6.8 buffer
  solubility at 24 h: 0.84 mg/mL (≈ 1530 µM)
[2]; pH 4.5 buffer
  Final pH: 5.84
  Phenomenon: turbid
[2]; pH 6.8 buffer
  Final pH: 6.74
  Phenomenon: turbid
[2]; simulated gastric fluid, 0.1M HCl
  solubility at 24 h: > 50.1 mg/mL
[2]; water, H2O
  solubility at 24 h: 0.06 mg/mL (≈ 109 µM)
SU-DHL-6
  inhibitory activity against SU-DHL-6 cells: high inhibitory activities
SU-DHL-10
  inhibitory activity against SU-DHL-10 cells: high inhibitory activities
PRC2 (EZH2-Y641F)
  IC50: 0.012 µM
  inhibitory activity against EZH2 Y641F enzyme: high inhibitory activity
PRC2 (EZH2-Y641F); listed as compound of formula X
  inhibitory activity against EZH2 Y641F enzyme: high inhibitory activities

## CCc1c(C(=O)NCc2c(C)cc(C)[nH]c2=O)cc2c(cnn2C)c1N(CC)[C@H]1CC[C@H](N2CC(OC)C2)CC1.Cl [Crystal form A]
[1]; 4° C. 0 d
  Content (%): 96.62%
  Properties: Dark yellow
  RRT(%) 0.86: 0.21%
  RRT(%) 0.89: 0.11%
  RRT(%) 0.94: 0.31%
  RRT(%) 0.97: 0.09%
  RRT(%) 1.04: 0.42%
  RRT(%) 1.07: 0.67%
  RRT(%) 1.10: 0.42%
  RRT(%) 1.13: 0.18%
  RRT(%) 1.15: 0.38%
  RRT(%) 1.16: 0.60%
  Total impurities (%): 3.38%
[1]; 40° C./75% RH 4 d
  Content (%): 96.34%
  Properties: Dark yellow
  RRT(%) 0.86: 0.21%
  RRT(%) 0.89: 0.09%
  RRT(%) 0.94: 0.28%
  RRT(%) 0.97: 0.09%
  RRT(%) 1.04: 0.49%
  RRT(%) 1.07: 0.75%
  RRT(%) 1.10: 0.51%
  RRT(%) 1.13: 0.19%
  RRT(%) 1.15: 0.41%
  RRT(%) 1.16: 0.60%
  RRT(%) 1.20: 0.07%
  Total impurities (%): 3.66%
[1]; 40° C./75% RH 7 d
  Content (%): 96.60%
  Properties: Dark yellow
  RRT(%) 0.86: 0.22%
  RRT(%) 0.89: 0.09%
  RRT(%) 0.94: 0.31%
  RRT(%) 0.97: 0.09%
  RRT(%) 1.04: 0.47%
  RRT(%) 1.07: 0.75%
  RRT(%) 1.10: 0.32%
  RRT(%) 1.13: 0.11%
  RRT(%) 1.15: 0.38%
  RRT(%) 1.16: 0.59%
  Total impurities (%): 3.40%
[1]; 40° C./75% RH, 4 and 7 days
  solid state stability: stable
[1]; 60° C. 4 d
  Content (%): 85.19%
  Properties: Dark yellow
  RRT(%) 0.86: 0.15%
  RRT(%) 0.89: 0.14%
  RRT(%) 0.94: 0.67%
  RRT(%) 0.97: 0.56%
  RRT(%) 1.04: 1.25%
  RRT(%) 1.07: 10.65%
  RRT(%) 1.10: 0.29%
  RRT(%) 1.13: 0.08%
  RRT(%) 1.15: 0.44%
  RRT(%) 1.16: 0.52%
  RRT(%) 1.20: 0.05%
  Total impurities (%): 14.81%
[1]; 60° C. 7 d
  Content (%): 75.90%
  Properties: Dark yellow
  RRT(%) 0.86: 0.11%
  RRT(%) 0.89: 0.07%
  RRT(%) 0.92: 0.22%
  RRT(%) 0.94: 0.63%
  RRT(%) 0.97: 0.66%
  RRT(%) 1.04: 1.28%
  RRT(%) 1.07: 19.89%
  RRT(%) 1.10: 0.21%
  RRT(%) 1.13: 0.05%
  RRT(%) 1.15: 0.38%
  RRT(%) 1.16: 0.51%
  RRT(%) 1.20: 0.09%
  Total impurities (%): 24.10%
[1]; [3]
  change in crystal form on storage: the crystal form has not changed
[1]; 60° C., 4 and 7 days
  change of impurities: the impurities increase obviously
[2]; 0.1M HCl
  Phenomenon: clear
  Solubility: ≥62.8 mg/mL
[2]; H2O
  Phenomenon: clear
  Solubility: ≥81.4 mg/mL
[2]; pH 4.5 buffer
  Phenomenon: clear
  Solubility: ≥43.8 mg/mL
[2]; pH 6.8 buffer
  Phenomenon: clear
  Solubility: ≥74.6 mg/mL
